Residue numbers refer to the chain shown, from its start. Where two headings read alike, the source gives them in different places.
Legend:
[1] = test system: FADD-deficient Jurkat cells; test: Jurkat cell necroptosis assay; settings: for IC50: read-out: IC50, nM Jurkat cell necroptosis assay (RIPK1/3-dependent)
RIPK2 = RIPK2 (Homo sapiens, UniProt O43353); test: ADP-Glo in vitro kinase assay, recombinant RIPK2; type: biochemical
RIPK1 [2] = target: T1, RIPK1 (Homo sapiens, UniProt Q13546); test: ADP-Glo in vitro kinase assay, recombinant RIPK1
T1 sequence (Q13546 1-327): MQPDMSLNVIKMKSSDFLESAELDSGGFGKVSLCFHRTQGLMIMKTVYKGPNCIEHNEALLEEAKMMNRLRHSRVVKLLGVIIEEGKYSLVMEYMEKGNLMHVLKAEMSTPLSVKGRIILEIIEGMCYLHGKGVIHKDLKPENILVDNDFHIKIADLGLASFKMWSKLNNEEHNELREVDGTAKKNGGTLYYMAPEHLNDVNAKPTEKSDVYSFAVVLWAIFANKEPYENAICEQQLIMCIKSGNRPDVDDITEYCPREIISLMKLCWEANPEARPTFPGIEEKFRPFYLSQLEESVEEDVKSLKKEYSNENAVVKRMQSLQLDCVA

RIPK3 [3] = target: T2, RIPK3 (Homo sapiens, UniProt Q9Y572); test: ADP-Glo in vitro kinase assay, recombinant RIPK3; type: biochemical
T2 sequence (Q9Y572 whole entry, species assumed): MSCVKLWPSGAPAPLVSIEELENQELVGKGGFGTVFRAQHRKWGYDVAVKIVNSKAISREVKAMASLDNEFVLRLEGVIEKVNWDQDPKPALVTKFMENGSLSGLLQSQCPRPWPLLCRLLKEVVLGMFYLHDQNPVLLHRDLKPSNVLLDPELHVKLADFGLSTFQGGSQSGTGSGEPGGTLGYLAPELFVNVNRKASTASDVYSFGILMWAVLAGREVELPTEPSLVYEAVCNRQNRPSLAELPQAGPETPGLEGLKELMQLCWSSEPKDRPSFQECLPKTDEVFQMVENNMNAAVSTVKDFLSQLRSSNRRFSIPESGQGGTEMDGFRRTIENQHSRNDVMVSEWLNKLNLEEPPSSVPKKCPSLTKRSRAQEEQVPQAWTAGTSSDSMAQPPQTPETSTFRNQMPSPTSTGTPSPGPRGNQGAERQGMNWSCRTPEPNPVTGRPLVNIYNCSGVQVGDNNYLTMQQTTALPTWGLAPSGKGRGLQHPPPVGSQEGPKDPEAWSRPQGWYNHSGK

MEFs [4] = test: TCZ; type: cell-based; settings: 50 ng/ml mouse TNFα, 200 ng/ml cycloheximide, 25 μM zVAD.fmk, 18 hr
[5] = target: T3, RIPK1/RIPK3 “necrosome” complex (Mus musculus, UniProt Q60855); test: Necrosome complex formation, co-IP assay in TCZ-stimulated MEFs; type: cell-based; settings: TCZ 6 hr, RIPK3 immunoprecipitation
T3 sequence (Q60855 1-656): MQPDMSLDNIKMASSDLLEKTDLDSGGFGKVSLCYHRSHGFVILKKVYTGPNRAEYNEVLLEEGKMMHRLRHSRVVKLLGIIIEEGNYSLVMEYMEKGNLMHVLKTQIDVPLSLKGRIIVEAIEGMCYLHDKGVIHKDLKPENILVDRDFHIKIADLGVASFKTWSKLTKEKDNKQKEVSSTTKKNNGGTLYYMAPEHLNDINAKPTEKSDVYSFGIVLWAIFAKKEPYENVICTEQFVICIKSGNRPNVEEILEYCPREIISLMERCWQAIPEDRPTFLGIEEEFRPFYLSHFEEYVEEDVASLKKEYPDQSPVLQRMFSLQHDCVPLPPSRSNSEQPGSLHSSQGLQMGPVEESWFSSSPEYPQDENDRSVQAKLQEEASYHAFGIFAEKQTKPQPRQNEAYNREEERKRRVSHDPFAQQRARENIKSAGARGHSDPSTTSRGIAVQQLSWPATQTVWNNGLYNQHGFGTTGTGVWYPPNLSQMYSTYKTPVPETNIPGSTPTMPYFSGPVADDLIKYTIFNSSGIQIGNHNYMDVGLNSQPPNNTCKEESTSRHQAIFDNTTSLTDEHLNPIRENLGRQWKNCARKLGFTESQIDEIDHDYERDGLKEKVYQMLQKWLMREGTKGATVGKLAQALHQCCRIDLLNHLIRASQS

MEFs [6] = test: poly; type: cell-based, mouse; settings: 5 μg/ml poly(I:C), 50 μM zVAD.fmk, 24 hr
RIPK1−/− MEFs = test: IFNγ-induced RIPK3-dependent cell death; settings: 10 ng/ml IFNγ, 24 hr
MEFs [7] = test: RIPK1-dependent apoptosis of MEFs; settings: 10 ng/ml mouse TNFα + 100 nM 5z-7-oxozeaenol, 24 hr
RIPK1 [8] = target: T1, RIPK1; test: 32P autophosphorylation assay, recombinant RIPK1; type: biochemical; settings: 2 μM kinase
RIPK3 [9] = target: T2, RIPK3; test: 32P autophosphorylation assay, recombinant RIPK3; type: biochemical; settings: 2 μM kinase
Abl = Abl (Homo sapiens, UniProt P00519); test: ADP-Glo in vitro kinase assay, recombinant Abl; type: biochemical; settings: read-out: IC50, nM ADPGlo, Abl; recombinant Abl (1 ng)
Sequence of Abl (P00519 whole entry, species assumed): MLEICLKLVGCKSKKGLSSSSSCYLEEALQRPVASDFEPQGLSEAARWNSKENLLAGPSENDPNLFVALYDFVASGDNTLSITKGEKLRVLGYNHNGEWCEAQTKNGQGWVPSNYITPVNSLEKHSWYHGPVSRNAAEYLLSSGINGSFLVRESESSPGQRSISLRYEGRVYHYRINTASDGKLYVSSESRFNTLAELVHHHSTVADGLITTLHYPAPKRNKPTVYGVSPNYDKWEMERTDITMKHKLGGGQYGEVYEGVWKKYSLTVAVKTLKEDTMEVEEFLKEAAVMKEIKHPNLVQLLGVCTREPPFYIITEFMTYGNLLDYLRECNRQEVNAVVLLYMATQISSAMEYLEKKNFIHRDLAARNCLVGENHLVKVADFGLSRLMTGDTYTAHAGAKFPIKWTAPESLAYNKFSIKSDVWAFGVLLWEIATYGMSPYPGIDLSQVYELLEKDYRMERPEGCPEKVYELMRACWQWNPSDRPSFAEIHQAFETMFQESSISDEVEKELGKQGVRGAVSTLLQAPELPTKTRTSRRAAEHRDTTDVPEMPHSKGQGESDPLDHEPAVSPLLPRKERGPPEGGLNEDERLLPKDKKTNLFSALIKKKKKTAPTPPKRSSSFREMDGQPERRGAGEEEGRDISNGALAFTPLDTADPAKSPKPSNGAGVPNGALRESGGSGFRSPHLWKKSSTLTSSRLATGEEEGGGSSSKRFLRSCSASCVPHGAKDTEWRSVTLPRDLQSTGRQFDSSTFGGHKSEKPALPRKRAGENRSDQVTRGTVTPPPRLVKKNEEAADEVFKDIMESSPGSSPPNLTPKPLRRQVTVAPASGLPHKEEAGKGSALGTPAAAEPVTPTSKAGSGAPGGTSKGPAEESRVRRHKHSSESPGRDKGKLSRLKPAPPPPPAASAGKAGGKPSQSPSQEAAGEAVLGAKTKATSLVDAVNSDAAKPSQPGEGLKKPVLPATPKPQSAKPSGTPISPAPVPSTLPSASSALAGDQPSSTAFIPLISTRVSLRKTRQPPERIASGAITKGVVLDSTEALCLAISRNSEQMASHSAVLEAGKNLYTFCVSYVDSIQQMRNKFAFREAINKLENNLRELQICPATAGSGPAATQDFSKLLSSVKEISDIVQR

TNFα mRNA in iBMM cells = test: RIPK1-dependent TNFα mRNA upregulation, qRT-PCR, iBMM; type: cell-based, mouse; settings: 10 ng/ml LPS and 50 μM zVAD.fmk, 7 hr
[10] = test system: TNFα toxicity in C57BL6/J mice; test: TNF-induced injury in vivo; settings: for protection from TNFα toxicity in vivo: 15 min before 5 μg/mouse mouse TNFα i.v.; for activity with respect to survival and injury markers: 0.4 mg/kg i.p., versus Nec-1
[11] = test system: TNFα mRNA in FADD-deficient Jurkat cells; test: RIPK1-dependent TNFα mRNA upregulation, qRT-PCR, Jurkat; type: cell-based; settings: 10 ng/ml human TNFα, 8 hr
[12] = test system: diversity set of 97 kinases (90 wild type kinase and 7 mutants); type: binding, human; settings: 1 μM
RIPK1 [13] = target: T4, RIPK1 (Homo sapiens, UniProt Q13546); test: ScanEDGE; type: binding; settings: 1 μM
T4 sequence (Q13546 1-671): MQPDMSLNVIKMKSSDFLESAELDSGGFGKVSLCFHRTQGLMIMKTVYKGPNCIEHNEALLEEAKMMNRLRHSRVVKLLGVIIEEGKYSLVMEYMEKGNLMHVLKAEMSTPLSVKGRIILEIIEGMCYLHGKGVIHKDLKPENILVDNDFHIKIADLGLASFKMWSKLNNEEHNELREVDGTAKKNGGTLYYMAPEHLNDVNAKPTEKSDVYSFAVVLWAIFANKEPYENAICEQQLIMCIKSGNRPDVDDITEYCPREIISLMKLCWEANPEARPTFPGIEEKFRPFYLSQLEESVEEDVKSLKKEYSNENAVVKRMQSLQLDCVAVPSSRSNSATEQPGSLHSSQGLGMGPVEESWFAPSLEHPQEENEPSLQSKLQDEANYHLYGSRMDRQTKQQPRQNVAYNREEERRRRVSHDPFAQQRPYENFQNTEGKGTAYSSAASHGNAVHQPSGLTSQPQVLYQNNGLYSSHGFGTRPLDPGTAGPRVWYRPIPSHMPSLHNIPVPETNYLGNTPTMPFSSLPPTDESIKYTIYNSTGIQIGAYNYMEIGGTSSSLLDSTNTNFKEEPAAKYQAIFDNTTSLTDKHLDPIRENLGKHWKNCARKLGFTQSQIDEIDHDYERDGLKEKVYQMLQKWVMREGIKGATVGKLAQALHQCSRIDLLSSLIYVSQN

DYRK1b = DYRK1b (Homo sapiens, UniProt Q9Y463); test: ScanEDGE; type: binding; settings: 1 μM
Sequence of DYRK1b (Q9Y463 whole entry): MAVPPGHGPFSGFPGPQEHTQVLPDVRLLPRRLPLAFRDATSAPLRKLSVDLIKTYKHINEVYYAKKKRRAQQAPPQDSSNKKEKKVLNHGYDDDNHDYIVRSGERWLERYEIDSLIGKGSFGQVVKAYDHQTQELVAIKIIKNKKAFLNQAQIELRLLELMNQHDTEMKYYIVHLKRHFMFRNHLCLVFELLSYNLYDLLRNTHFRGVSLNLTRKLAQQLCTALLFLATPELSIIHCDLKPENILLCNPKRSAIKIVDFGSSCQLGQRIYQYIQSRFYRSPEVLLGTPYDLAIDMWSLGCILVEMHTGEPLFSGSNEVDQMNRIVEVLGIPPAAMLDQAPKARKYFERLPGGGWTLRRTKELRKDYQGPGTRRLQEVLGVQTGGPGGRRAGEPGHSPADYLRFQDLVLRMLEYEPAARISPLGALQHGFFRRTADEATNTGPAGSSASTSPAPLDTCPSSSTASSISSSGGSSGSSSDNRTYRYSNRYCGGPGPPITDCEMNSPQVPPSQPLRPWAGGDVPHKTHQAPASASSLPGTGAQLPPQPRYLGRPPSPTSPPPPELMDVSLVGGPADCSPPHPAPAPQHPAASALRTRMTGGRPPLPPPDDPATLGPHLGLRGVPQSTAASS

RIPK1 [14] = target: T1, RIPK1; test: HTRF assay of RIPK1; type: biochemical
L157F/M92T RIPK1 = target: T5, L157F/M92T RIPK1 (Homo sapiens, UniProt Q13546, L157F/M92T); test: 32P autophosphorylation assay, L157F/M92T RIPK1; type: biochemical; settings: FLAG-tagged kinase (a.a. 1–327) from HEK293T cells
T5 sequence (Q13546 1-327 M92T/L157F): T1 sequence (Q13546 1-327) with M92T, L157F

[15] = read-out: IC50, nM ADPGlo, RIPK2, recombinant RIPK2 (10 ng)
[16] = read-out: IC50, nM ADPGlo, RIPK1, recombinant RIPK1 (20 ng)
[17] = read-out: IC50, nM ADPGlo, RIPK3, recombinant RIPK3 (20 ng)

Sequence of RIPK2 (O43353 whole entry, species assumed): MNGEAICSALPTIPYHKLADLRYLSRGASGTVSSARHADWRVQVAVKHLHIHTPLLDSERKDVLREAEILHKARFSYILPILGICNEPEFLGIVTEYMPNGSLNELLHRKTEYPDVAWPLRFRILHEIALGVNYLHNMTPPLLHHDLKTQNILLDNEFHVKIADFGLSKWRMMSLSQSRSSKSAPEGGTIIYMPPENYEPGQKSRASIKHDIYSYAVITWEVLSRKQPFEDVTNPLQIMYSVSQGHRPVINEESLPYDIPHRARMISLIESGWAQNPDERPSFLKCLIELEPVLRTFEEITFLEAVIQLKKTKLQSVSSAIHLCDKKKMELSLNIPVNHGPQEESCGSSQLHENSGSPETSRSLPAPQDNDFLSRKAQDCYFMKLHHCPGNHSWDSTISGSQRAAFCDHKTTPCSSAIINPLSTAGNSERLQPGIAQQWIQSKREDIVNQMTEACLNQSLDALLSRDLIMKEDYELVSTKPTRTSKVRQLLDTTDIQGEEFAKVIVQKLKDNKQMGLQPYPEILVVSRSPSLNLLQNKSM

## CN1CCN(Cc2ccc(NC(=O)c3cccc(C#Cc4cnc5cccnn45)c3)cc2C(F)(F)F)CC1 [CS1]
[1]; 10 ng/ml human TNFα, 24 hr
  IC50: 219 nM
RIPK2; [15]
  IC50: 63 nM
RIPK1 [2]; [16]
  IC50: 42 nM
RIPK3 [3]; [17]
  IC50: 7.4 nM

## CNC(=O)c1cc(Oc2ccc(NC(=O)Nc3cc(C(C)(C)C)nn3-c3ccc4ncccc4c3)c(F)c2)ccn1 [DCC-2036]
[1]; versus ponatinib
  cellular activity, fold lower than ponatinib: > 10 fold
RIPK2
  IC50: 520 nM
RIPK1 [2]
  IC50: 5.7 nM
RIPK3 [3]
  IC50: 18 nM

## Cc1cc(-c2cnc(N)c3c(-c4ccc5scnc5c4)csc23)n(C)n1 [GSK-843]
MEFs [4]
  protection from TCZ-induced cell death: efficiently protecting cells
[5]
  inhibition of necrosome complex formation: not affected

## CC(C)S(=O)(=O)c1ccc2nccc(Nc3ccc4scnc4c3)c2c1 [GSK-872]
MEFs [4]
  protection from TCZ-induced cell death: efficiently protecting cells
MEFs [6]
  inhibition of poly(I:C)/zVAD.fmk-induced cell death: inhibit
RIPK1−/− MEFs
  inhibition of IFNγ-induced cell death: blockade of cell death
[5]
  inhibition of necrosome complex formation: not affected
MEFs [7]
  protection from RIPK1-dependent, RIPK3-independent apoptosis: did not inhibit RIPK1-dependent apoptosis

## Cc1ccc(NC(=O)c2ccc(CN3CCN(C)CC3)cc2)cc1Nc1nccc(-c2cccnc2)n1 [Gleevec, Imatinib]
[1]; 10 ng/ml human TNFα, 24 hr
  prevention of necroptosis: nor prevented necroptosis
RIPK1 [8]
  inhibition of RIPK1 in 32P autophosphorylation assay: neither inhibited
RIPK1−/− MEFs
  inhibition of IFNγ-induced cell death: Neither Gleevec nor Nilotininb
RIPK3 [9]
  inhibition of RIPK3 in 32P autophosphorylation assay: neither inhibited

## CN1C(=O)NC(Cc2c[nH]c3c(Cl)cccc23)C1=O (centres unmarked) [Nec-1, 7-Cl-O-Nec-1]
[1]; 10 ng/ml human TNFα, 24 hr
  IC50: 210 nM
RIPK1 [8]
  inhibition of RIPK1 in 32P autophosphorylation assay: only inhibited RIPK1
Abl
  IC50: > 10000 nM
TNFα mRNA in iBMM cells
  inhibition of TNFα mRNA upregulation, immortalized macrophages: inhibited
[10]; 1 mg/kg i.p.
  circulating levels of IL-6: reduced
  survival of the animals: prevented death of the animals
  protection from TNFα toxicity in vivo: significant protection from injury
RIPK2; [15]
  IC50: > 10000 nM
MEFs [6]
  inhibition of poly(I:C)/zVAD.fmk-induced cell death: marginal protection
[11]
  inhibition of TNFα mRNA upregulation, Jurkat cells: inhibited
RIPK3 [9]
  inhibition of RIPK3 in 32P autophosphorylation assay: only inhibited RIPK1
RIPK3 [3]; [17]
  IC50: > 10000 nM
[5]
  inhibition of necrosome complex formation: efficiently blocked necrosome assembly

## COc1ccc2c(c1)C1=NN(C(C)=O)C(c3ccc(F)cc3)C1CC2 (centres unmarked) [Nec-3]
[1]; 10 ng/ml human TNFα, 24 hr
  IC50: 260 nM
Abl
  IC50: > 10000 nM
RIPK2; [15]
  IC50: > 10000 nM
RIPK1 [2]; [16]
  IC50: 840 nM
RIPK3 [3]; [17]
  IC50: > 10000 nM

## Cc1cn(-c2cc(NC(=O)c3ccc(C)c(Nc4nccc(-c5cccnc5)n4)c3)cc(C(F)(F)F)c2)cn1 [Nilotininb]
RIPK1−/− MEFs
  inhibition of IFNγ-induced cell death: Neither Gleevec nor Nilotininb

## Cc1ccc(CCCCN2C(=O)NC(Cc3c[nH]c4c(Cl)cccc34)C2=O)cc1C#Cc1cnc2cccnn12 (centres unmarked) [PN10]
Abl
  IC50: > 10000 nM
TNFα mRNA in iBMM cells
  inhibition of TNFα mRNA upregulation, immortalized macrophages: efficiently inhibited
[12]
  inhibition of other kinases of the ScanEDGE panel: No other kinase was inhibited >65%
[10]
  activity with respect to survival and injury markers: significantly higher activity than Nec-1
[10]; 1 mg/kg i.p.
  protection from TNFα toxicity in vivo: fully protective
RIPK2; [15]
  IC50: 1400 nM
MEFs [4]
  Maximal protection from TCZ-induced cell death: ~ 85%
[11]
  inhibition of TNFα mRNA upregulation, Jurkat cells: efficiently inhibited
RIPK1 [13]
  inhibition of RIPK1 in ScanEDGE panel: > 99%
[5]
  inhibition of necrosome complex formation: efficiently inhibited
DYRK1b
  inhibition of DYRK1b in ScanEDGE panel: 79%

## Cc1ccc(C(=O)Nc2ccc(CN3CCN(C)CC3)c(C(F)(F)F)c2)cc1C#Cc1cnc2cccnn12 [Ponatinib, ponatinib]
RIPK1 [8]
  inhibition of RIPK1 in 32P autophosphorylation assay: inhibition
TNFα mRNA in iBMM cells
  inhibition of TNFα mRNA upregulation, immortalized macrophages: efficiently inhibited
[10]
  activity with respect to survival and injury markers: significantly higher activity than Nec-1
[10]; 1 mg/kg i.p.
  protection from TNFα toxicity in vivo: completely prevented toxicity of TNFα
RIPK1 [14]
  inhibition of RIPK1 in HTRF assay: inhibition
L157F/M92T RIPK1
  inhibition of L157F/M92T RIPK1 in 32P autophosphorylation assay: inhibited
[11]
  inhibition of TNFα mRNA upregulation, Jurkat cells: efficiently inhibited
RIPK3 [9]
  inhibition of RIPK3 in 32P autophosphorylation assay: inhibition
[5]
  inhibition of necrosome complex formation: substantial, but lower activity
MEFs [7]
  protection from RIPK1-dependent, RIPK3-independent apoptosis: protected

— PMC4494889 (Cell reports, 2015)
